Test system: kynurenine production in IFN-γ-treated KATO-III cells
Experiment: Inhibitory activity on kynurenine production (Test Example 1)
Assay type: cell-based
Settings: Homo sapiens, IFN-γ treatment, culture for 96 hours, read-out: IC50 value, inhibition of kynurenine production
In short: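 Read-out is absorbance at 480 nm of medium treated with trichloroacetic acid, then p-dimethylaminobenzaldehyde, to quantify kynurenine. DMSO-only wells with and without IFN-γ serve as references. Cells were KATO-III, 2,000 per well, 96 h at 37 °C/5% CO2 with compound (DMSO ≤0.1%) and IFN-γ at 31.25 ng/mL in the added suspension.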

IC50 [nM]	Structure (SMILES)
< 1000	CCNS(=O)(=O)Nc1nc2ccccc2nc1OC(c1cccnc1)C(F)(F)F (stereo not shown) [Compound 195, N-ethyl-N′-{3-[2,2,2-trifluoro-1-(pyridin-3-yl)ethoxy]-quinoxalin-2-yl}sulfuric diamide]
< 1000	CCCS(=O)(=O)Nc1nc2ccccc2nc1OC(c1cnc(Cl)s1)C(F)(F)F (stereo not shown) [Compound 196, N-{3-[1-(2-chlorothiazol-5-yl)-2,2,2-trifluoroethoxy]-quinoxalin-2-yl}propane-1-sulfonamide]
< 1000	CCCS(=O)(=O)Nc1nc2ccccc2nc1OC(c1ccc(CN(C)C)cc1)C(F)(F)F (stereo not shown) [Compound 197, N-{3-[1-(4-((dimethylamino)methyl)phenyl)-2,2,2-trifluoroethoxy]quinoxalin-2-yl}propane-1-sulfonamide]
< 1000	Cc1noc(C)c1S(=O)(=O)Nc1nc2ccccc2nc1OC(c1cnc(Cl)s1)C(F)(F)F (stereo not shown) [Compound 198, N-{3-[1-(2-chlorothiazol-5-yl)-2,2,2-trifluoroethoxy]-quinoxalin-2-yl}-3,5-dimethylisoxazole-4-sulfonamide]
< 1000	Cc1nn(C)c(Cl)c1S(=O)(=O)Nc1nc2ccccc2nc1OC(c1ccc(C#N)cc1)C(F)(F)F (stereo not shown) [Compound 200, 5-chloro-N-{3-[1-(4-cyanophenyl)-2,2,2-trifluoroethoxy]-quinoxalin-2-yl}-1,3-dimethyl-1H-pyrazole-4-sulfonamide]
< 1000	Cc1noc(C)c1S(=O)(=O)Nc1nc2ccccc2nc1OC(c1ccc(C#N)cc1)C(F)(F)F (stereo not shown) [Compound 201, N-{3-[1-(4-cyanophenyl)-2,2,2-trifluoroethoxy]quinoxalin-2-yl}-3,5-dimethylisoxazole-4-sulfonamide]
< 1000	CCCS(=O)(=O)Nc1nc2ccccc2nc1OC(c1ccc(C#N)cc1)C(F)(F)F (stereo not shown) [Compound 202, N-{3-[1-(4-cyanophenyl)-2,2,2-trifluoroethoxy]quinoxalin-2-yl}propane-1-sulfonamide]
< 1000	Cc1nn(C)c(Cl)c1S(=O)(=O)Nc1nc2ccccc2nc1OC(c1ccc(CN(C)C)cc1)C(F)(F)F (stereo not shown) [Compound 203, 5-chloro-N-{3-[1-(4-((dimethylamino)methyl)phenyl)-2,2,2-trifluoroethoxy]quinoxalin-2-yl}-1,3-dimethyl-1H-pyrazole-4-sulfonamide]
< 1000	Cc1noc(C)c1S(=O)(=O)Nc1nc2ccccc2nc1OC(c1ccc(CN(C)C)cc1)C(F)(F)F (stereo not shown) [Compound 204, N-{3-[1-(4-((dimethylamino)methyl)phenyl)-2,2,2-trifluoroethoxy]quinoxalin-2-yl}-3,5-dimethylisoxazole-4-sulfonamide]
< 1000	COCCCNS(=O)(=O)Nc1nc2ccccc2nc1OC(c1cccnc1)C(F)(F)F (stereo not shown) [Compound 206, N-{3-[2,2,2-trifluoro-1-(pyridin-3-yl)ethoxy]quinoxalin-2-yl}-N′-(3-methoxypropyl)-sulfuric diamide]
< 1000	CCOCCNS(=O)(=O)Nc1nc2ccccc2nc1OC(c1cccnc1)C(F)(F)F (stereo not shown) [Compound 207, N-{3-[2,2,2-trifluoro-1-(pyridin-3-yl)ethoxy]quinoxalin-2-yl}-N′-(2-ethoxyethyl)-sulfuric diamide]
< 1000	CC(C)(C)OC(=O)NCCc1ccc(S(=O)(=O)Nc2nc3ccccc3nc2OC(c2cccnc2)C(F)(F)F)cc1 (stereo not shown) [Compound 208, tert-butyl 4-(N-{3-[2,2,2-trifluoro-1-(pyridin-3-yl)ethoxy]quinoxalin-2-yl}sulfamoyl)phenethylcarbamate]
< 1000	CCCS(=O)(=O)Nc1nc2ccccc2nc1OC(c1cccnc1)C(C)C (stereo not shown) [Compound 210, N-{3-[2-methyl-1-(pyridin-3-yl)propoxy]quinoxalin-2-yl}-propane-1-sulfonamide]
< 1000	CCCNS(=O)(=O)Nc1nc2ccccc2nc1OC(c1cccnc1)C(C)C (stereo not shown) [Compound 213, N-{3-[2-methyl-1-(pyridin-3-yl)propoxy]quinoxalin-2-yl}-N′-propyl-sulfuric diamide]
< 1000	CCCNS(=O)(=O)Nc1nc2ccccc2nc1OC(c1ccc[n+]([O-])c1)C(C)C (stereo not shown) [Compound 214, 3-{2-methyl-1-[3-(N-propylsulfamoylamino)quinoxalin-2-yloxy]propyl}pyridine 1-oxide]
< 1000	CCCS(=O)(=O)Nc1nc2ccccc2nc1OC(C1CCOCC1)C(F)(F)F (stereo not shown) [Compound 215, N-{3-[2,2,2-trifluoro-1-(tetrahydro-2H-pyran-4-yl)ethoxy]-quinoxalin-2-yl}propane-1-sulfonamide]
< 1000	CCCNS(=O)(=O)Nc1nc2ccccc2nc1OC(C1CCOCC1)C(F)(F)F (stereo not shown) [Compound 216, N-propyl-N′-{3-[2,2,2-trifluoro-1-(tetrahydro-2H-pyran-4-yl)ethoxy]quinoxalin-2-yl}sulfuric diamide]
1000 to 10000	O=S(=O)(Nc1nc2ccccc2nc1SCc1ccccc1)c1ccccc1Cl [Compound 221, N-[3-(benzylthio)quinoxalin-2-yl]-2-chlorobenzenesulfonamide]
< 1000	CC(Sc1nc2ccccc2nc1NS(=O)(=O)c1ccccc1Cl)c1ccccc1 (stereo not shown) [Compound 224, 2-chloro-N-[3-(1-phenylethylthio)quinoxalin-2-yl]benzenesulfonamide]
< 1000	CC(C)C(Oc1nc2ccccc2nc1NS(=O)(=O)c1cccc(Cl)c1Cl)C(C)C [Compound 226, 2,3-dichloro-N-[3-(2,4-dimethylpentan-3-yloxy)quinoxalin-2-yl]benzenesulfonamide]
< 1000	CC(CN1CCOCC1)Oc1nc2ccccc2nc1NS(=O)(=O)c1ccccc1Cl (stereo not shown) [Compound 230, 2-chloro-N-[3-(1-morpholinopropan-2-yloxy)quinoxalin-2-yl]-benzenesulfonamide]
1000 to 10000	CC(Oc1nc2ccccc2nc1NS(=O)(=O)c1ccccc1Cl)C(C)(C)C (stereo not shown) [Compound 231, 2-chloro-N-[3-(3,3-dimethylbutan-2-yloxy)quinoxalin-2-yl]-benzenesulfonamide]
1000 to 10000	CCOCC(C)Oc1nc2ccccc2nc1NS(=O)(=O)c1ccccc1Cl (stereo not shown) [Compound 232, 2-chloro-N-[3-(1-ethoxypropan-2-yloxy)quinoxalin-2-yl]-benzenesulfonamide]
< 1000	CCC(=O)C(CC)Oc1nc2ccccc2nc1NS(=O)(=O)c1ccccc1Cl (stereo not shown) [Compound 237, 2-chloro-N-[3-(4-oxohexan-3-yloxy)quinoxalin-2-yl]benzenesulfonamide]
< 1000	O=S(=O)(Nc1nc2ccccc2nc1OC(c1cccnc1)c1cccnc1)c1ccccc1Cl [Compound 242, 2-chloro-N-[3-(dipyridin-3-ylmethoxy)quinoxalin-2-yl]-benzenesulfonamide]
< 1000	O=S(=O)(Nc1nc2ccccc2nc1OC(c1cccnc1)c1cncs1)c1ccccc1Cl (stereo not shown) [Compound 243, 2-chloro-N-{3-[pyridin-3-yl(thiazol-5-yl)methoxy]-quinoxalin-2-yl}benzenesulfonamide]
< 1000	CCC1(COc2nc3ccccc3nc2NS(=O)(=O)c2ccccc2Cl)CCOCC1 [Compound 245, 2-chloro-N-{3-[(4-ethyltetrahydro-2H-pyran-4-yl)methoxy]-quinoxalin-2-yl}benzenesulfonamide]
< 1000	CC1(COc2nc3ccccc3nc2NS(=O)(=O)c2ccccc2Cl)CCOCC1 [Compound 246, 2-chloro-N-{3-[(4-methyltetrahydro-2H-pyran-4-yl)methoxy]-quinoxalin-2-yl}benzenesulfonamide]
